Data as given in patent publication US20220016102A1, “ER PROTEIN REGULATORS AND USE THEREOF” (ShanghaiTech University, priority 2018, published 2022).

Assays:
ER protein [1] = molecular target: T1, ER protein (Homo sapiens, UniProt P03372); assay: Western blotting analysis of ER protein degradation in MCF-7 cell line; assay type: cell-based; parameters: western blotting detection of the level of intracellular ER protein; endogenous in cells; details: MCF-7 cells, Western blot gray values vs DMSO control
T1 sequence (P03372 1-595): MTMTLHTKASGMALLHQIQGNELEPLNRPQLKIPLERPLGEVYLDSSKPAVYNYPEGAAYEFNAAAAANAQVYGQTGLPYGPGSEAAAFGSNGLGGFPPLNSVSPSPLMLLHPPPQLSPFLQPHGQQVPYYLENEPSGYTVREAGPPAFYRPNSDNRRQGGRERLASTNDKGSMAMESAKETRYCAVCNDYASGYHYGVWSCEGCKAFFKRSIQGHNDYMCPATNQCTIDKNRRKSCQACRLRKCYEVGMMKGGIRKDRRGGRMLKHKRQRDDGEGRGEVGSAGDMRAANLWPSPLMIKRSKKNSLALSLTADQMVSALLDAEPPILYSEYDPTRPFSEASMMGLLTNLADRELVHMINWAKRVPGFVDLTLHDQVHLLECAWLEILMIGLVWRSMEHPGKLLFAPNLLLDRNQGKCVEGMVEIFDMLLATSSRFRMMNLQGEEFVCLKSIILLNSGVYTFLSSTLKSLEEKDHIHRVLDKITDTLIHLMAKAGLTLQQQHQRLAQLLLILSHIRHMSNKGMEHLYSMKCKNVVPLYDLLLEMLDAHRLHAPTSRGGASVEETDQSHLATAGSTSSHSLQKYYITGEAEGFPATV
Description: MCF-7 were cultured in ncubator with 5% CO2 at 37° C. Complete medium was EMEM supplemented with 10% FBS, 100 U/mL Penicillin and Streptomycin, and 0.77 μg/mL recombinant human insulin. […]
DC50 value (the drug concentration required for degrading proteins by 50%, abbreviated as DC50) reads method: comparing the gray values of the Western blotting bands for the drug treatment with the gray values of the Western blotting band for the DMSO control, and reading the drug concentration range corresponding to the gray value of the Western blotting bands for the drug treatment which is equal to half of the gray value of the Western blotting band for the DMSO control.
DC50 value could also be calculated as follows: using software ImageJ to quantify the gray values of the Western blotting bands for the drug treatment, fitting the relationship curve between drug concentrations and gray values, and from the fitted curve, calculating the drug concentration corresponding to half of the gray value of the Western blotting band for the DMSO control.

ER protein [2] = molecular target: T1, ER protein; assay: Western blotting analysis of ER protein degradation in T47D cell line; assay type: cell-based; parameters: western blotting detection of the level of intracellular ER protein; endogenous in cells; host or cells: T47D; details: degradation of ER protein, T47D cells, drug treatment for 16 hours, Western blot gray values vs DMSO control; read-out: DC50 (nM)/T47Dcell line
Description: T47D cells were cultured in an incubator with 5% CO2 at 37° C. Complete medium was RPMI1640 supplemented with 10% Foetal bovine serum (FBS), 100 U/ml Penicillin and Streptomycin, and 0.77 μg/mL recombinant human insulin. Western blotting analysis of T47D cell line: • Cells were plated in a 24-well plate at a cell seeding […] of 1.5×10^5 cells/mL, with 1 ml cell suspensions per well. • After 24 h the cells were adherent, and the cells in each well were treated with 1 μL a certain concentration of ER protein regulators of the present disclosure. […] Afterwards, the membranes were block by using the Blocking Buffer, and the antibody incubation and development were performed. (The above procedures were all based on the antibody product manual of the manufacturer) DC50 value (the drug concentration required for degrading proteins by 50%, abbreviated as DC50) reads method: comparing the gray values of the Western blotting bands for the drug treatment with the gray values of the Western blotting band for the DMSO control, and reading the drug concentration range corresponding to the gray value of the Western blotting bands for the drug treatment which is equal to half of the gray value of the Western blotting band for the DMSO control. DC50 value could also be calculated as follows: using software ImageJ to quantify the gray values of the Western blotting bands for the drug treatment, fitting the relationship curve between drug concentrations and gray values, and from the fitted curve, calculating the drug concentration corresponding to half of the gray value of the Western blotting band for the DMSO control.

SMILES | DC50 (ER protein [1]) | DC50 (ER protein [2])
Cc1ncsc1-c1ccc(CNC(=O)[C@@H]2C[C@@H](O)CN2C(=O)[C@@H](NC(=O)CCOCCOCCOCCC(=O)NCCOc2ccc(C(=C(CCCl)c3ccccc3)c3ccc(O)cc3)cc2)C(C)(C)C)cc1 [SIAIS208018, (2S,4R)-1-((S)-2-(tert-butyl)-19-(4-(4-chloro-1-(4-hydroxyphenyl)-2-phenylbut-1-en-1-yl)phenoxy)-4,16-dioxo-7,10,13-trioxa-3,17-diazanonadecanoyl)-4-hydroxy-N-(4-(4-methylthiazol-5-yl)benzyl)pyrrolidine-2-carboxamide] | < 50 nM | < 50 nM
Cc1ncsc1-c1ccc(CNC(=O)[C@@H]2C[C@@H](O)CN2C(=O)[C@@H](NC(=O)CCOCCOCCOCCOCCC(=O)NCCOc2ccc(C(=C(CCCl)c3ccccc3)c3ccc(O)cc3)cc2)C(C)(C)C)cc1 [SIAIS208019, N1-(2-(4-(4-chloro-1-(4-hydroxyphenyl)-2-phenylbut-1-en-1-yl)phenoxy)ethyl)-N16-((S)-1-((2S,4R)-4-hydroxy-2-((4-(4-methylthiazol-5-yl)benzyl)carbamoyl)pyrrolidin-1-yl)-3,3-dimethyl-1-oxobutan-2-yl)-4,7,10,13-tetraoxahexadecanediamide] | < 50 nM | < 10 nM
Cc1ncsc1-c1ccc(CNC(=O)[C@@H]2C[C@@H](O)CN2C(=O)[C@@H](NC(=O)CCC(=O)NCCOc2ccc(C(=C(CCCl)c3ccccc3)c3ccc(O)cc3)cc2)C(C)(C)C)cc1 [SIAIS208020, N1-(2-(4-(4-chloro-1-(4-hydroxyphenyl)-2-phenylbut-1-en-1-yl)phenoxy)ethyl)-N4-((S)-1-((2S,4R)-4-hydroxy-2-((4-(4-methylthiazol-5-yl)benzyl)carbamoyl)pyrrolidin-1-yl)-3,3-dimethyl-1-oxobutan-2-yl)succinamide] | < 50 nM | < 10 nM
Cc1ncsc1-c1ccc(CNC(=O)[C@@H]2C[C@@H](O)CN2C(=O)[C@@H](NC(=O)CCCC(=O)NCCOc2ccc(C(=C(CCCl)c3ccccc3)c3ccc(O)cc3)cc2)C(C)(C)C)cc1 [SIAIS208031, N1-(2-(4-(4-chloro-1-(4-hydroxyphenyl)-2-phenylbut-1-en-1-yl)phenoxy)ethyl)-N5-((S)-1-((2S,4R)-4-hydroxy-2-((4-(4-methylthiazol-5-yl)benzyl)carbamoyl)pyrrolidin-1-yl)-3,3-dimethyl-1-oxobutan-2-yl)glutaramide] | < 100 nM | < 100 nM
Cc1ncsc1-c1ccc(CNC(=O)[C@@H]2C[C@@H](O)CN2C(=O)[C@@H](NC(=O)CCCCC(=O)NCCOc2ccc(C(=C(CCCl)c3ccccc3)c3ccc(O)cc3)cc2)C(C)(C)C)cc1 [SIAIS208032, N1-(2-(4-(4-chloro-1-(4-hydroxyphenyl)-2-phenylbut-1-en-1-yl)phenoxy)ethyl)-N6-((S)-1-((2S,4R)-4-hydroxy-2-((4-(4-methylthiazol-5-yl)benzyl)carbamoyl)pyrrolidin-1-yl)-3,3-dimethyl-1-oxobutan-2-yl)adipamide] | < 100 nM | < 50 nM
Cc1ncsc1-c1ccc(CNC(=O)[C@@H]2C[C@@H](O)CN2C(=O)[C@@H](NC(=O)CCCCCC(=O)NCCOc2ccc(C(=C(CCCl)c3ccccc3)c3ccc(O)cc3)cc2)C(C)(C)C)cc1 [SIAIS208033, N1-(2-(4-(4-chloro-1-(4-hydroxyphenyl)-2-phenylbut-1-en-1-yl)phenoxy)ethyl)-N7-((S)-1-((2S,4R)-4-hydroxy-2-((4-(4-methylthiazol-5-yl)benzyl)carbamoyl)pyrrolidin-1-yl)-3,3-dimethyl-1-oxobutan-2-yl)heptanediamide] | < 10 nM | < 10 nM
Cc1ncsc1-c1ccc(CNC(=O)[C@@H]2C[C@@H](O)CN2C(=O)[C@@H](NC(=O)CCCCCCC(=O)NCCOc2ccc(C(=C(CCCl)c3ccccc3)c3ccc(O)cc3)cc2)C(C)(C)C)cc1 [SIAIS208034, N1-(2-(4-(4-chloro-1-(4-hydroxyphenyl)-2-phenylbut-1-en-1-yl)phenoxy)ethyl)-N8-((S)-1-((2S,4R)-4-hydroxy-2-((4-(4-methylthiazol-5-yl)benzyl)carbamoyl)pyrrolidin-1-yl)-3,3-dimethyl-1-oxobutan-2-yl)octanediamide] | < 10 nM | < 10 nM
Cc1ncsc1-c1ccc(CNC(=O)[C@@H]2C[C@@H](O)CN2C(=O)[C@@H](NC(=O)CCCCCCCCC(=O)NCCOc2ccc(/C(=C(/CCCl)c3ccccc3)c3ccc(O)cc3)cc2)C(C)(C)C)cc1 [SIAIS208036, N1-(2-(4-((Z)-4-chloro-1-(4-hydroxyphenyl)-2-phenylbut-1-en-1-yl)phenoxy)ethyl)-N10-((S)-1-((2S,4R)-4-hydroxy-2-((4-(4-methylthiazol-5-yl)benzyl)carbamoyl)pyrrolidin-1-yl)-3,3-dimethyl-1-oxobutan-2-yl)decanediamide] | < 10 nM | < 10 nM
Cc1ncsc1-c1ccc(CNC(=O)[C@@H]2C[C@@H](O)CN2C(=O)[C@@H](NC(=O)CCCCCCCCCC(=O)NCCOc2ccc(C(=C(CCCl)c3ccccc3)c3ccc(O)cc3)cc2)C(C)(C)C)cc1 [SIAIS208037, N1-(2-(4-(4-chloro-1-(4-hydroxyphenyl)-2-phenylbut-1-en-1-yl)phenoxy)ethyl)-N11-((S)-1-((2S,4R)-4-hydroxy-2-((4-(4-methylthiazol-5-yl)benzyl)carbamoyl)pyrrolidin-1-yl)-3,3-dimethyl-1-oxobutan-2-yl)undecanediamide] | < 10 nM | < 10 nM
Cc1ncsc1-c1ccc(CNC(=O)[C@@H]2C[C@@H](O)CN2C(=O)[C@@H](NC(=O)CCCCCCCCCCCCC(=O)NCCOc2ccc(C(=C(CCCl)c3ccccc3)c3ccc(O)cc3)cc2)C(C)(C)C)cc1 [SIAIS208038, N1-(2-(4-(4-chloro-1-(4-hydroxyphenyl)-2-phenylbut-1-en-1-yl)phenoxy)ethyl)-N14-((S)-1-((2S,4R)-4-hydroxy-2-((4-(4-methylthiazol-5-yl)benzyl)carbamoyl)pyrrolidin-1-yl)-3,3-dimethyl-1-oxobutan-2-yl)tetradecanediamide] | < 10 nM | < 50 nM
Cc1ncsc1-c1ccc(CNC(=O)[C@@H]2C[C@@H](O)CN2C(=O)[C@@H](NC(=O)CCCCCCCCCCCCCCC(=O)NCCOc2ccc(C(=C(CCCl)c3ccccc3)c3ccc(O)cc3)cc2)C(C)(C)C)cc1 [SIAIS208039, N1-(2-(4-(4-chloro-1-(4-hydroxyphenyl)-2-phenylbut-1-en-1-yl)phenoxy)ethyl)-N16-((S)-1-((2S,4R)-4-hydroxy-2-((4-(4-methylthiazol-5-yl)benzyl)carbamoyl)pyrrolidin-1-yl)-3,3-dimethyl-1-oxobutan-2-yl)hexadecanediamide] | < 100 nM | < 50 nM
Cc1ncsc1-c1ccc(CNC(=O)[C@@H]2C[C@@H](O)CN2C(=O)[C@@H](NC(=O)COCCOCC(=O)NCCOc2ccc(C(=C(CCCl)c3ccccc3)c3ccc(O)cc3)cc2)C(C)(C)C)cc1 [SIAIS208041, (2S,4R)-1-((S)-2-(tert-butyl)-14-(4-(4-chloro-1-(4-hydroxyphenyl)-2-phenylbut-1-en-1-yl)phenoxy)-4,11-dioxo-6,9-dioxa-3,12-diazatetradecanoyl)-4-hydroxy-N-(4-(4-methylthiazol-5-yl)benzyl)pyrrolidine-2-carboxamide] | 10 nM | < 10 nM
